Assay results as given in ChEMBL document CHEMBL6134808, “Sertraline and Astemizole Enhance the Deubiquitinase Activity of USP7 by Binding to Its Switching Loop Region” (J Med Chem, 2025).
Active and inactive are the calls of the source. No cut-off for these calls is given here.

Legend:
Homo sapiens = species on record: Homo sapiens; assay: Binding affinity to MTSL-labeled USP7CD-CTP N1102C mutant (unknown origin) expressed in Escherichia coli BL21(DE3) assessed as complex formation of compound and CTP with switching loop region of USP7 at 200 uM by CPMG spectral analysis; conditions: filed as activator
[1] = target: T1, Ubiquitin carboxyl-terminal hydrolase 7 (Homo sapiens, UniProt Q93009); assay: Activation of USP7 catalytic domain (208 to 560 residues) (unknown origin) expressed in Escherichia coli BL21(DE3) assessed as upregulation of Kcat of enzyme using Ub-AMC as substrate at 200 uM preincubated for 15 mins followed by Ub-AMC addition and measured for 1 hr by fluorescence based analysis; conditions: filed as activator, time 75.0 min
Target sequence in this assay (Q93009 whole entry, looked up, the tested form may be a part): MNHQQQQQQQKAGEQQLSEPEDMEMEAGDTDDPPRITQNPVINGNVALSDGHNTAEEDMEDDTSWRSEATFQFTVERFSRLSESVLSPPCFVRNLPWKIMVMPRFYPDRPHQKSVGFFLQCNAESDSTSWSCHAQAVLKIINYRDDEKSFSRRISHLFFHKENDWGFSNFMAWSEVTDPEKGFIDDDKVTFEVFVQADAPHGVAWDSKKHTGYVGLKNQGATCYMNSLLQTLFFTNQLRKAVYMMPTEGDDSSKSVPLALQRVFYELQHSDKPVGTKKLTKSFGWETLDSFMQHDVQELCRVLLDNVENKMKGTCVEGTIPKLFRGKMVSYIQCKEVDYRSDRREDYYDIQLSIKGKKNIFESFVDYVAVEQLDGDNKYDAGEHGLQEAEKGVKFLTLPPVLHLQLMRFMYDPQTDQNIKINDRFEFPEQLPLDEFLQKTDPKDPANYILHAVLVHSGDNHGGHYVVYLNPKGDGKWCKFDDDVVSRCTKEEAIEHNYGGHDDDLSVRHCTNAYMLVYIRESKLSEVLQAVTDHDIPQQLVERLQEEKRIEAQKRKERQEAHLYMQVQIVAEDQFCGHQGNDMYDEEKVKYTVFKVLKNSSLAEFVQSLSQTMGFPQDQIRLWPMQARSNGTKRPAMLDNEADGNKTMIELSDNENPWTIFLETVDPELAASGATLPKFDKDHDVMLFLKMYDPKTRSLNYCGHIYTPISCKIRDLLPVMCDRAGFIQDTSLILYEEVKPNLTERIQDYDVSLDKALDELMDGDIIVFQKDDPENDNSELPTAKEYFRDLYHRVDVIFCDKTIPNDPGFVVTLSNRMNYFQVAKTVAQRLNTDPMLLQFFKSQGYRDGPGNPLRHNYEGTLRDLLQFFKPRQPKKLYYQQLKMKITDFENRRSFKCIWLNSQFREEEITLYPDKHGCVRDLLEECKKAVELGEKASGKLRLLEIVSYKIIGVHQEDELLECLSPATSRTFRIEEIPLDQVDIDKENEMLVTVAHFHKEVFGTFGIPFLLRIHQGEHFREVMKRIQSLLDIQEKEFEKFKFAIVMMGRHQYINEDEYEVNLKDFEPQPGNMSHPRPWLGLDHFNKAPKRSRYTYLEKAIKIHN

[2] = target: T1, Ubiquitin carboxyl-terminal hydrolase 7; assay: Activation of USP7 catalytic domain (208 to 560 residues) (unknown origin) expressed in Escherichia coli BL21(DE3) assessed as decrease in thermal stability of protein at 250 uM by SYPRO orange dye based fluorescence analysis; conditions: filed as activator
Target sequence in this assay (Q93009 whole entry, looked up, the tested form may be a part): as above

[3] = tested on: Ubiquitin carboxyl-terminal hydrolase 7 (Homo sapiens), Q93009 [D1080N]; conditions: filed as activator, time 15.0 min
Sequence of Ubiquitin carboxyl-terminal hydrolase 7 (Homo sapiens), Q93009 [D1080N] (Q93009 whole entry D1080N): as the sequence (Q93009 whole entry, looked up, the tested form may be a part) above, with D1080N counted along it

[4] = target: T1, Ubiquitin carboxyl-terminal hydrolase 7; conditions: filed as activator, time 15.0 min
Target sequence in this assay (Q93009 whole entry, looked up, the tested form may be a part): as the sequence (Q93009 whole entry, looked up, the tested form may be a part) above

[5] = tested on: Ubiquitin carboxyl-terminal hydrolase 7 (Homo sapiens), Q93009 [I766T]; conditions: filed as activator, time 15.0 min
Sequence of Ubiquitin carboxyl-terminal hydrolase 7 (Homo sapiens), Q93009 [I766T] (Q93009 whole entry I766T): as the sequence (Q93009 whole entry, looked up, the tested form may be a part) above, with I766T counted along it

[6] = tested on: Ubiquitin carboxyl-terminal hydrolase 7 (Homo sapiens), Q93009 [L757P]; conditions: filed as activator, time 15.0 min
Sequence of Ubiquitin carboxyl-terminal hydrolase 7 (Homo sapiens), Q93009 [L757P] (Q93009 whole entry L757P, the tested form may be a part): as the sequence (Q93009 whole entry, looked up, the tested form may be a part) above, with L757P counted along it

[7] = target: T1, Ubiquitin carboxyl-terminal hydrolase 7; assay: Activation of USP7 catalytic domain (208 to 560 residues) (unknown origin) expressed in Escherichia coli BL21(DE3) assessed as Ub-AMC hydrolysis preincubated for 15 mins followed by Ub-AMC addition and measured every 1 min by fluorescence based analysis
Target sequence in this assay (Q93009 whole entry, the tested form may be a part): as the sequence (Q93009 whole entry, looked up, the tested form may be a part) above

[8] = target: T1, Ubiquitin carboxyl-terminal hydrolase 7; conditions: filed as activator
Target sequence in this assay (Q93009 whole entry, looked up, the tested form may be a part): as above

Structure (SMILES) | Activity (Homo sapiens) | Activity [1] | Activity [2] | EC1.5 [3] [µM] | EC1.5 [4] [µM] | EC1.5 [5] [µM] | EC1.5 [6] [µM] | EC50 [7] [µM] | EC1.5 [8] [µM]
CN[C@H]1CC[C@@H](c2ccc(Cl)c(Cl)c2)c2ccccc21 | Active | – | – | – | – | – | – | – | –
COc1ccc(CCN2CCC(Nc3nc4ccccc4n3Cc3ccc(F)cc3)CC2)cc1 [ASTEMIZOLE] | Active | Active | Active | 6.54 | 2.19 | 1.27 | 8.98 | 32.2 | 5.61
